Values quoted from earlier work in patent US9345804B2, “S-nitrosothiol-generating skin dressings” (Insense Limited, priority 2007, dated 2016).

Key:
[1] = at 25° C.
[2] = under normal conditions

Row | Molecule | pKa [1] | time to almost complete decomposition [2]
1 | O=NO [nitrite] | 3.4 | –
2 | nitrosoglycerol | – | hours/days
